Source: patent US9901625B2, “Methods of regulating uptake and transcellular transport of leukocytes and therapeutics” (University of Maryland, College Park, priority 2011, dated 2018)

How the values were obtained:
activated HUVECs [1] = assay: Paracellular vs transcellular transmigration of WBCs over HUVECs on coverslips (podosome scoring); assay type: cell-based, human; settings: for WBC TEM (WBCs projecting podosomes into/under HUVECs): 30 min, 37° C.; for arrested WBCs located away from the EC borders / diapedesis of WBCs located away from the EC borders: EC center; for paracellular TEM (transmigrating WBCs at EC border) / transcellular TEM (transmigrating WBCs at EC center): normalized to control; for paracellular TEM (transmigrating WBCs at EC border): <3 μm from cell border; for transcellular TEM (transmigrating WBCs at EC center): ≧3 μm from cell border
Method: The role of lipid domains and CAM-mediated endocytosis in paracellular versus transcellular diapedesis of leukocytes was examined. To distinguish between paracellular and transcellular TEM, WBCs were labeled with green-fluorescent calcein and diapedesis was evaluated by fluorescence and scanning electron microscopy as WBCs projecting podosomes (versus round-shaped WBCs) into or under ECs growing over glass coverslips (FIG. 3; FIG. 4).
Data are normalized to control values (horizontal dashed lines) and represent mean and standard errors of the mean (n≧30 WBCs). *, P≦0.05; **, P≦0.01; ***, P≦0.001 by Student's t test.

activated HUVECs [2] = assay: Recruitment of molecules at sites of endothelial ICAM-1 engagement by anti-ICAM beads; assay type: cell-based, human; settings: 15 min
[3] = system: activated HUVEC monolayers; assay: Transport of WBCs across activated HUVEC monolayers on a porous membrane (SDF1-α chemoattractant); assay type: cell-based, human; settings: for WBC transmigration across HUVEC monolayer: 30 min, 37° C., WBCs counted in bottom chamber; for WBC capacity to transmigrate across the porous filter in the absence of an endothelial monolayer: no HUVEC monolayer
Method: A confluent EC monolayer from human umbilical vein ECs was grown on a porous membrane through which peripheral lymphocytes isolated from healthy individuals (wild-type WBCs) can transmigrate, driven by the presence of the chemoattractant SDF1-α in the chamber underneath the ECs. Under control conditions, 77.7±2.3% wild-type WBCs underwent transmigration by 30 min, which was abrogated when K562 cells lacking the ICAM-1- and VCAM-1-binding integrins LFA-1 and VLA-4, respectively, were used (FIG. 1A). Transport of either peripheral blood lymphocytes (control) or K562 cells lacking ICAM-1- and VCAM-1-binding integrins of white blood cells (WBCs) across activated HUVEC monolayers assessed at 37° C. by counting WBCs in the bottom chamber underneath HUVEC, 30 min after adding WBCs to the upper chamber above HUVECs (black bars). Transmigration was alternatively performed prior (control) or after blocking integrins LFA-1 or VLA-4 on peripheral blood lymphocytes using monoclonal antibodies. The horizontal dashed line in FIG. 1A represents WBC transmigration at 4° C.
Data are normalized to control values, and represent mean and standard errors of the mean (n≧3 experiments). *, P≦0.001 by Student's t test.
Further, transport of activated peripheral blood lymphocytes (WBCs) across activated HUVEC monolayers was assessed at 37° C. by counting WBCs in the bottom chamber underneath HUVEC 30 min after adding WBCs to the upper chamber above HUVECs (FIG. 2A black bars). Absence of HUVEC monolayer was a control (FIG. 2A white bars). Transmigration was performed in the absence (control) or presence of filipin, methyl-β-cyclodextrin (Cdx) or amiloride. In accord with previous works (Tilghman R W, et al. (2002) FEBS Lett 525:83-87; Barreiro O, et al. (2005) Blood 105:2852-2861; Millan et al., 2006), WBC transmigration was inhibited by methyl-β-cyclodextrin (Cdx; 48.1±4.8% of control; FIG. 2A), an agent that depletes cholesterol from cells. […] Instead, amiloride, which affects Na^+/H^+ exchangers (Kleyman T R, et al. (1988) J Membr Biol 105:1-21) and inhibits CAM-mediated endocytosis (Muro S, et al. (2003) J Cell Sci 11 6:1599-1609), reduced WBC transmigration even to a greater extent than Cdx (38.6±3.7% of control; FIG. 2A).

activated HUVECs [4] = assay: Binding of activated WBCs to activated HUVECs (fluorescence microscopy); assay type: cell-based, human; settings: 30 min, 37° C.
Text: The horizontal dashed line represents binding of negative control K562 WBCs, which lack ICAM-I- and VCAM-1-binding integrins. Data are normalized to control values, and represent mean and standard errors of the mean (n≧3 experiments). *, P≦0.001 by Student's t test.

HUVECs = assay: Endocytosis of anti-ICAM beads by ECs in culture (HUVECs); assay type: cell-based, human; settings: values normalized to controls
ICAM-1 = settings: cited from earlier work

Molecule | WBC TEM (WBCs projecting podosomes into/under HUVECs) (activated HUVECs [1]) | arrested WBCs located away from the EC borders (activated HUVECs [1]) | diapedesis of WBCs located away from the EC borders (activated HUVECs [1]) | paracellular TEM (transmigrating WBCs at EC border) (activated HUVECs [1]) | transcellular TEM (transmigrating WBCs at EC center) (activated HUVECs [1]) | ICAM-1 enrichment in areas of bead engulfment (activated HUVECs [2]) | WBC transmigration across HUVEC monolayer [3] | WBC capacity to transmigrate across the porous filter in the absence of an endothelial monolayer [3] | affected WBC binding to ECs (activated HUVECs [4]) | level of transcellular TEM (activated HUVECs [1]; FIG. 14C) | paracellular TEM (activated HUVECs [1]; FIG. 14C) | ceramide enrichment in areas of bead engulfment (activated HUVECs [2]) | Internalization (%) of anti-ICAM beads (HUVECs) | Formation of endocytic vesicles upon ICAM-1 engagement by anti-ICAM particles (ICAM-1)
methyl-β-cyclodextrin [Cdx] | 80.5±6.8 % of control | 170.5±36.2 % of control | 71.5±14.6 % of control | 124.9±17.1% | 78.3±14.9% | 43 % decrease | 48.1±4.8 % of control | Neither Cdx nor amiloride impaired | Neither |  |  |  |  | 
CN(C)CCCN1c2ccccc2CCc2ccccc21 [imipramine] | 46.6±7.6 % of control |  |  |  |  |  |  |  |  | decreased the level of transcellular TEM | paracellular TEM increased | 23.6 % decrease | 61.9 ± 6.7 % | 
CCN(c1nc(N)c(C(=O)N=C(N)N)nc1Cl)C(C)C [EIPA, 5′-(N-ethyl-N-isopropyl)amiloride] |  |  |  |  |  |  |  |  |  |  |  | 35.6 % decrease |  | 
CCCCC[C@@H](O)[C@H]1C(=O)O[C@H](C)[C@@H](O)/C=C/C=C/C=C/C=C/C=C(\C)[C@@H](O)C[C@H](O)C[C@H](O)C[C@H](O)C[C@H](O)C[C@H](O)C[C@@H]1O [filipin] | 108.7±8.6 % of control |  |  |  |  |  | 88.0±7.7 % of control |  |  |  |  |  | 107.2 ± 1.5% | not affected
N=C(N)NC(=O)c1nc(Cl)c(N)nc1N [amiloride] | 63.8±7.3 % of control | 209.1±68.1 % of control | 56.0±27.5 % of control | 139.6±34.1% | 65.5±29.7% | 22.9 % decrease | 38.6±3.7 % of control | Neither Cdx nor amiloride impaired | Neither |  |  |  | 13.8 ± 3.3 % | 
